{
  "source": "patent US5958882A",
  "about": "“Compounds that inhibit T cell proliferation and methods using the same” (Thomas Jefferson University, priority 1996, dated 1999)",
  "key": {"[1]": {"system": "MLR in a BALB/c (H-2D) anti C3H (H-2K) alloresponse", "experiment": "MLR of Example 10 (Table II)", "format": "cell-based, mouse", "conditions": "MLR without peptide 66000 CPM", "description": "(§1) Mice were sacrificed and spleens aseptically removed. Cell suspensions were made by gently pressing spleens through nylon mesh, washing cells with RPMI 1640 and hypotonic lysis of red blood cells. After 3 washes in RPMI 1640, cells were resuspended in complete medium (RPMI 1640, 10% heat inactivated FCS, 2 mM L-glutamine, penicillin/streptomycin, and […]). 1×10^5 responder cells (BALB/c spleen cells) were incubated with 1×10^5 stimulator cells (C3H spleen cells, 2000 rad irradiated) in triplicate in round bottom 96 well plates (final volume 200 μl), and incubated with the indicated concentration of peptide (0.01, 0.1, 1, 10, 100 and 1000 μM peptide) for 5 days at 37° C., 5% CO2. 1 μCi/WELL OF [^3 H] TdR was added 12 hours before thymidine incorporation was measured. Labelled DNA from cells was harvested onto glass fiber filters with a PHD cell harvester (Cambridge, Mass.), and CPM determined by liquid scintillation counting with the use of a 1209 Rackbeta (LKB, Piscataway, N.J.).\nA MLR was performed as described in Example 6. h84-101 C--C, SEQ ID NO:4, SEQ ID NO:5, SEQ ID NO:6, SEQ ID NO:11, (SEQ ID NO:4+SEQ ID NO:5), and a monoclonal antibody directed against CD4 (OKT4A) were tested for their effect on MLR in a BALB/c (H-2D) anti C3H (H-2K) alloresponse. MLR was also performed without the addition of peptide or antibody (MLR). Each peptide individually has inhibitory activity to a moderate level (30-50%), but when two analogs are added together (SEQ ID NO:4 and SEQ ID NO:5) the effect was synergistic and the inhibition approached 100%, as compared to a monoclonal antibody directed against CD4 (OKT4A)."}, "[2]": {"system": "human T cells stimulated with PHA", "experiment": "Phytohemagglutinin T cell proliferation assay", "format": "cell-based", "description": "The mitogen phytohemagglutinin (PHA) activates T cells by cross-linking CD3/TCR complexes. Human blood is collected from volunteer donors. Lymphocytes are purified by separation over a Ficoll gradient. T cells are separated by rosetting to sheep red blood cells. The enriched T cell population is stimulated with 5 μg/ml phytohemagglutinin (PHA). FIG. 7 illustrates the ability of the D2 peptide analogs to inhibit T cell proliferation in response to PHA stimulation. […] Results are illustrated in FIG. 7."}, "[3]": {"system": "BALB/c spleen cells (responder) with irradiated C3H spleen cells (stimulator)", "experiment": "Mixed lymphocyte reaction (MLR), BALB/c anti-C3H alloresponse", "format": "cell-based, mouse", "from_the_text": "The mixed lymphocyte reaction (MLR) is the response of one individual's T lymphocytes to those of a major histocompatibility complex (MHC) mismatched donor. CD4+ T cells recognize the foreign MHC proteins and proliferate in response to this, in a manner highly dependent on the CD4 molecule.\nas §1\nA MLR was performed as described in Example 6. Cells were incubated with a 0.01, 0.1, 1, 10, 100, and 1000 μM of each of the following peptides: SEQ ID NO:1 (mPGPtide), and control peptides, SEQ ID NO:3 (hPGPtides) and SEQ ID NO:13 (mCDR3 scramble). […] Activity was approximately 85000 CPM after the addition of 0.01 μM SEQ ID NO:1, and approximately 30000 CPM after the addition of 200 μM SEQ ID NO:1. […] Activity was approximately 75000 CPM at 0.01 μM SEQ ID NO:3, and approximately 60000 CPM after the addition of 200 μM SEQ ID NO:3. Similarly, activity was approximately 80000 CPM after the addition of 0.01 μM of SEQ ID NO:13, and approximately 90000 CPM after the addition of 200 μM SEQ ID NO:13. […]"}, "[4]": {"system": "human mixed lymphocyte reaction", "experiment": "Human mixed lymphocyte reaction (Example 8, FIG. 3)", "format": "cell-based"}, "EAE in SJL mice": {"system": "EAE in SJL mice", "experiment": "Experimental allergic encephalomyelitis (EAE) model", "format": "in vivo, mouse", "conditions": "for maximum EAE incidence: SJL mice, untreated 83%; for maximum mean EAE severity grade (0-5): untreated 2.17; for average time of initial onset: untreated day 15.6", "description": "Experimental allergic encephalomyelitis (EAE) is considered to be the best experimental animal model for the study of multiple sclerosis since it shares many of the same clinical and histopathological features as the human disorder. EAE can be elicited in several animal species, including mice, by inoculation of crude CNS tissue extracts, purified MBP, proteolipids, or synthetic polypeptides composed of the active portions of these antigenic molecules. Antigen is administered subcutaneously in conjunction with complete Freund's adjuvant (CFA) and, in our modification of the standard procedure, is given twice on days 0 and 7 for induction (Korngold et al., (1986) Immunogenetics 24:309-315, which is incorporated herein by reference). Symptoms of disease usually occur between 15-19 days after initial immunization and may last for up to 25 days. Mice usually recover from the acute EAE attack, but may relapse at a later time, or are susceptible to an enhanced disease episode upon further immunization.\nSJL mice, which are highly susceptible to the induction of acute EAE, were immunized as described in Korngold et al., (1986) Immunogenetics 24:309-315. Accordingly, 1 mg of crude SJL mouse spinal cord homogenate (MSCH) was diluted in 0.15 ml phosphate buffered solution and emulsified in an equal volume of CFA. 0.15 ml of the inoculum was injected subcutaneously in each of two sites on the posterior flank of mice anesthetized with metaphane. A secondary inoculation, similar to the primary, was administered at 7 days. Mice were evaluated daily for symptoms of disease and graded 0-5: 0=no clinical expression of disease; 1=flaccid tail with or without mild hind leg weakness; 2=flaccid tail with moderate hind leg weakness; 3=severe hind leg weakness and mild forelimb weakness; 4=total hind leg paralysis associated with moderate forelimb weakness; and 5=quadriplegia or a moribund state.\nThe mice were divided into four groups: the first left untreated; the second injected on days 2 and 8 intravenously 10 (i.v.) with 0.5 mg of the D amino acid CDR3-like peptide #1; the third injected on day 12 i.v. with the D amino acid CDR3-like peptide #1; and the fourth injected i.v. on days 2 and 8 with a control D-polypeptide of similar length to the D amino acid CDR3-like peptide #1.\nWith the same experiment described above, mice from the different treatment groups were scored for the clinical expression of disease. […] The ifferences were statistically significant, by Tukey multiple analysis of variance, between: the untreated and the D amino acid CDR3-like peptide #1 day 2,8 treated group on days 16-19 and 24 […]; the untreated and the D amino acid CDR3-like peptide #1 day 12 treated group on days 16-24 (0.01≤p≤0.05); and the control peptide day 2,8 group and the D amino acid CDR3-like peptide #1 day 2,8 treated group on day 17 (p=0.02).\nTo investigate whether D amino acid CDR3-like peptide #1 could have an effect upon the development of EAE once symptoms have already appeared and therefore corresponding to the effector phase of the disease, 30 SJL mice were inoculated on days 0 and 7 with MSCH and CFA, as described above. 12 mice that had reached a grade 1 level of clinical EAE expression by day 16 were selected and randomly grouped to be left untreated or treated with 0.5 mg i.v. of D amino acid CDR3-like peptide #1. […] At day 18, the difference between the untreated and treated groups was statistically significant (p=0.003)."}, "[5]": {"system": "lethal GVHD in irradiated DBA/2 mice given B10.D2 CD4+ T cells", "experiment": "GVHD mediated by CD4+ T cells", "format": "in vivo, mouse", "conditions": "0.5 mg i.v. on days 0 and 3", "from_the_text": "The transplantation of B10.D2 CD4+ T cells along with T-cell-depleted bone marrow has been shown previously to induce a lethal GVHD response in irradiated (850 cGy) DBA/2 mice (Korngold and Sprent, (1987) J. Exp. Med. 165:1552-1564)."}},
  "note": "Bridges are numbered along the chain shown (N, C = ends). Where no end group is shown, it is not given here. [ ]: non-standard residue; d: D form.",
  "data": [
    {"substance": "LESPPGSSPSV [SEQ ID NO:5]", "values": [
      {"measurement": "CPM", "setting": "[1]", "result": 48000, "unit": "CPM"},
      {"measurement": "CPM after PHA stimulation", "setting": "[2]; 0.25 μM peptide, 5 μg/ml PHA", "result": 53500, "unit": "CPM"},
      {"measurement": "CPM after PHA stimulation", "setting": "[2]; 250 μg peptide", "result": 39500, "unit": "CPM"}
    ]},
    {"substance": "CLLVFEVEDQKEEVQGLC [SEQ ID NO:13]", "values": [
      {"measurement": "MLR activity (CPM)", "setting": "[3]; 0.01 μM peptide", "result": "approximately 80000 CPM"},
      {"measurement": "MLR activity (CPM)", "setting": "[3]; 200 μM peptide", "result": "approximately 90000 CPM"},
      {"measurement": "inhibitory activity on MLR", "setting": "[3]; BALB/c anti-C3H MLR, 5 days, [3H]TdR incorporation", "result": "little or no activity"},
      {"measurement": "% CPM of the positive control", "setting": "[4]; 500 μM peptide", "result": "about 100%"},
      {"measurement": "inhibition of the proliferative response of the human MLR", "setting": "[4]; 0.1-1000 μM", "result": "little or no inhibition"}
    ]},
    {"substance": "CPGPEEKRNELEC ([dC][dP]G[dP][dE][dE][dK][dR][dN][dE][dL][dE][dC]; disulfide 1-13 (inferred)) [D amino acid CDR3-like peptide #1]", "values": [
      {"measurement": "EAE severity grade reached, effector phase", "setting": "EAE in SJL mice; 0.5 mg i.v. at grade 1 on day 16, value on day 19, untreated 2.4 by day 18", "result": 1.17},
      {"measurement": "maximum EAE incidence", "setting": "EAE in SJL mice; i.v. on day 12", "result": 31, "unit": "%"},
      {"measurement": "maximum EAE incidence", "setting": "EAE in SJL mice; i.v. on days 2 and 8 (0.5 mg)", "result": 36, "unit": "%"},
      {"measurement": "days of peak EAE severity", "setting": "EAE in SJL mice; groups treated on days 2,8 or day 12", "result": "19 to 21", "unit": "days"},
      {"measurement": "effect on the course of disease progression (EAE)", "setting": "EAE in SJL mice; murine EAE model", "result": "dramatically intervened in the progression"},
      {"measurement": "maximum mean EAE severity grade (0-5)", "setting": "EAE in SJL mice; treated on day 12", "result": 0.75},
      {"measurement": "average time of initial onset", "setting": "EAE in SJL mice; treated on day 12", "result": 17.0, "unit": "days"},
      {"measurement": "maximum mean EAE severity grade (0-5)", "setting": "EAE in SJL mice; treated on days 2,8", "result": 0.77},
      {"measurement": "average time of initial onset", "setting": "EAE in SJL mice; treated on days 2,8", "result": 17.1, "unit": "days"},
      {"measurement": "incidence of survival", "setting": "[5]; untreated 83% lethal GVHD", "result": 57, "unit": "%"},
      {"measurement": "median survival time", "setting": "[5]; untreated 15 days, experiment ended at 65 days", "result": "greater than 65 days"}
    ]},
    {"substance": "C*RSPRGKNC [SEQ ID NO:6]", "values": [
      {"measurement": "CPM", "setting": "[1]", "result": 50000, "unit": "CPM"},
      {"measurement": "CPM after PHA stimulation", "setting": "[2]; 0.25 μM peptide, 5 μg/ml PHA", "result": 48000, "unit": "CPM"},
      {"measurement": "CPM after PHA stimulation", "setting": "[2]; 250 μg peptide", "result": 39500, "unit": "CPM"}
    ]},
    {"substance": "TCTNLQNQKKVECK [SEQ ID NO:4]", "values": [
      {"measurement": "CPM", "setting": "[1]", "result": 42000, "unit": "CPM"},
      {"measurement": "CPM after PHA stimulation", "setting": "[2]; 0.25 μM peptide, 5 μg/ml PHA", "result": 47000, "unit": "CPM"},
      {"measurement": "CPM after PHA stimulation", "setting": "[2]; 250 μg peptide", "result": 38000, "unit": "CPM"}
    ]}
  ]
}
